From ChEMBL document CHEMBL1933046, “Synthesis and antibacterial activity of a novel series of acylides active against community acquired respiratory pathogens” (2012)
Converted amounts (≈) assume the structure as drawn.

Key:
Format in all cases: functional
Streptococcus pneumoniae [1] = experiment: Antibacterial activity against Streptococcus pneumoniae 994 expressing mef gene by NCCLS method
Streptococcus pyogenes = experiment: Antibacterial activity against Streptococcus pyogenes 19615 by NCCLS method
Haemophilus influenzae = experiment: Antibacterial activity against Haemophilus influenzae 38 by NCCLS method
Moraxella catarrhalis = experiment: Antibacterial activity against Moraxella catarrhalis 8176 by NCCLS method
Streptococcus pneumoniae [2] = experiment: Antibacterial activity against Streptococcus pneumoniae 6303 by NCCLS method
Streptococcus pneumoniae [3] = experiment: Antibacterial activity against Streptococcus pneumoniae 49619 by NCCLS method
Streptococcus pneumoniae [4] = experiment: Antibacterial activity against Streptococcus pneumoniae 3579 expressing erm gene by NCCLS method
Streptococcus pneumoniae [5] = experiment: Antibacterial activity against Streptococcus pneumoniae by NCCLS method

Row | Structure (SMILES) | MIC (Streptococcus pneumoniae [1]) [µg/mL] | MIC (Streptococcus pyogenes) [µg/mL] | MIC (Haemophilus influenzae) [µg/mL] | MIC (Moraxella catarrhalis) [µg/mL] | MIC (Streptococcus pneumoniae [2]) [µg/mL] | MIC (Streptococcus pneumoniae [3]) [µg/mL] | MIC (Streptococcus pneumoniae [4]) [µg/mL] | MIC (Streptococcus pneumoniae [5]) [µg/mL]
1 | CC[C@H]1OC(=O)[C@H](C)[C@@H](OC(=O)Cc2ccccn2)[C@H](C)[C@@H](O[C@@H]2O[C@H](C)C[C@H](N(C)CC)[C@H]2O)[C@](C)(OC)C[C@@H](C)C(=O)[C@H](C)[C@H]2N(CCCCn3cnc4ncccc43)C(=O)O[C@]12C | 0.25 (≈ 0.271 µM) | 0.03 (≈ 0.0326 µM) | 0.06 (≈ 0.0651 µM) | 0.125 (≈ 0.136 µM) | 0.06 (≈ 0.0651 µM) | 0.015 (≈ 0.0163 µM) | 0.25 (≈ 0.271 µM) | 
2 | CC[C@H]1OC(=O)[C@H](C)[C@@H](OC(=O)Cc2cccnc2)[C@H](C)[C@@H](O[C@@H]2O[C@H](C)C[C@H](N(C)CC)[C@H]2O)[C@](C)(OC)C[C@@H](C)C(=O)[C@H](C)[C@H]2N(CCCCn3cnc(-c4cccnc4)c3)C(=O)O[C@]12C | 0.125 (≈ 0.132 µM) | 0.03 (≈ 0.0317 µM) | 1 (≈ 1.06 µM) | 0.125 (≈ 0.132 µM) | 0.06 (≈ 0.0633 µM) | 0.03 (≈ 0.0317 µM) | 2 (≈ 2.11 µM) | 
3 | CC[C@H]1OC(=O)[C@H](C)[C@@H](OC(=O)Cc2cccnc2)[C@H](C)[C@@H](O[C@@H]2O[C@H](C)C[C@H](N(C)CC)[C@H]2O)[C@](C)(OC)C[C@@H](C)C(=O)[C@H](C)[C@H]2N(CCCCn3cnc(-c4ccc(N)nc4)c3)C(=O)O[C@]12C | 0.125 (≈ 0.13 µM) | 0.03 (≈ 0.0312 µM) | 0.125 (≈ 0.13 µM) | 0.125 (≈ 0.13 µM) | 0.06 (≈ 0.0624 µM) | 0.06 (≈ 0.0624 µM) | 0.25 (≈ 0.26 µM) | 
4 | C=CCN(C)[C@H]1C[C@@H](C)O[C@@H](O[C@@H]2[C@@H](C)[C@H](OC(=O)Cc3ccccn3)[C@@H](C)C(=O)O[C@H](CC)[C@@]3(C)OC(=O)N(CCCCn4cnc(-c5ccccc5)c4)[C@@H]3[C@@H](C)C(=O)[C@H](C)C[C@@]2(C)OC)[C@@H]1O | 0.25 (≈ 0.261 µM) | 0.03 (≈ 0.0313 µM) | < 0.06 | 0.25 (≈ 0.261 µM) | 0.06 (≈ 0.0626 µM) | 0.03 (≈ 0.0313 µM) | 0.5 (≈ 0.522 µM) | 
5 | CC[C@H]1OC(=O)[C@H](C)[C@@H](O[C@H]2C[C@@](C)(OC)[C@@H](O)[C@H](C)O2)[C@H](C)[C@@H](O[C@@H]2O[C@H](C)C[C@H](N(C)C)[C@H]2O)[C@](C)(O)C[C@@H](C)CN(C)[C@H](C)[C@@H](O)[C@]1(C)O [AZITHROMYCIN] | 1 (≈ 1.34 µM) | 0.25 (≈ 0.334 µM) | > 16 | 16 (≈ 21.4 µM) | 0.25 (≈ 0.334 µM) | 0.25 (≈ 0.334 µM) | 16 (≈ 21.4 µM) | 
6 | C=CCN(C)[C@H]1C[C@@H](C)O[C@@H](O[C@@H]2[C@@H](C)[C@H](OC(=O)Cc3ccccn3)[C@@H](C)C(=O)O[C@H](CC)[C@@]3(C)OC(=O)N(CCCCn4cnc5cnccc54)[C@@H]3[C@@H](C)C(=O)[C@H](C)C[C@@]2(C)OC)[C@@H]1O | 0.25 (≈ 0.268 µM) | 0.03 (≈ 0.0321 µM) | < 0.06 | 0.06 (≈ 0.0643 µM) | 0.06 (≈ 0.0643 µM) | 0.03 (≈ 0.0321 µM) | 0.25 (≈ 0.268 µM) | 
7 | CC[C@H]1OC(=O)[C@H](C)[C@@H](OC(=O)Cc2ccccn2)[C@H](C)[C@@H](O[C@@H]2O[C@H](C)C[C@H](N(C)CC)[C@H]2O)[C@](C)(OC)C[C@@H](C)C(=O)[C@H](C)[C@H]2N(CCCCn3cnc(-c4cccnc4)c3)C(=O)O[C@]12C | 0.06 (≈ 0.0633 µM) | 0.06 (≈ 0.0633 µM) | 1 (≈ 1.06 µM) | 0.25 (≈ 0.264 µM) | 0.06 (≈ 0.0633 µM) | 0.015 (≈ 0.0158 µM) | 1 (≈ 1.06 µM) | 
8 | C=CCN(C)[C@H]1C[C@@H](C)O[C@@H](O[C@@H]2[C@@H](C)[C@H](OC(=O)Cc3cccnc3)[C@@H](C)C(=O)O[C@H](CC)[C@@]3(C)OC(=O)N(CCCCn4cnc(-c5cccnc5)c4)[C@@H]3[C@@H](C)C(=O)[C@H](C)C[C@@]2(C)OC)[C@@H]1O | 0.125 (≈ 0.13 µM) | 0.06 (≈ 0.0626 µM) | 0.125 (≈ 0.13 µM) | 0.25 (≈ 0.261 µM) | 0.03 (≈ 0.0313 µM) | 0.03 (≈ 0.0313 µM) | 1 (≈ 1.04 µM) | 
9 | C=CCN(C)[C@H]1C[C@@H](C)O[C@@H](O[C@@H]2[C@@H](C)[C@H](OC(=O)Cc3ccccn3)[C@@H](C)C(=O)O[C@H](CC)[C@@]3(C)OC(=O)N(CCCCn4cnc(-c5cccc(N)c5)c4)[C@@H]3[C@@H](C)C(=O)[C@H](C)C[C@@]2(C)OC)[C@@H]1O | 0.06 (≈ 0.0617 µM) | 0.03 (≈ 0.0308 µM) | < 0.06 | 0.125 (≈ 0.128 µM) | 0.03 (≈ 0.0308 µM) | 0.03 (≈ 0.0308 µM) | 0.125 (≈ 0.128 µM) | 
10 | C=CCN(C)[C@H]1C[C@@H](C)O[C@@H](O[C@@H]2[C@@H](C)[C@H](OC(=O)Cc3ccccn3)[C@@H](C)C(=O)O[C@H](CC)[C@@]3(C)OC(=O)N(CCCCn4cnc(-c5ccoc5)c4)[C@@H]3[C@@H](C)C(=O)[C@H](C)C[C@@]2(C)OC)[C@@H]1O | 0.125 (≈ 0.132 µM) | 0.06 (≈ 0.0633 µM) | 0.25 (≈ 0.264 µM) | 0.125 (≈ 0.132 µM) | 0.06 (≈ 0.0633 µM) | 0.015 (≈ 0.0158 µM) | 0.125 (≈ 0.132 µM) | 
11 | C=CCN(C)[C@H]1C[C@@H](C)O[C@@H](O[C@@H]2[C@@H](C)[C@H](OC(=O)Cc3cccnc3)[C@@H](C)C(=O)O[C@H](CC)[C@@]3(C)OC(=O)N(CCCCn4cnc(-c5ccc(N)nc5)c4)[C@@H]3[C@@H](C)C(=O)[C@H](C)C[C@@]2(C)OC)[C@@H]1O | 0.06 (≈ 0.0616 µM) | 0.06 (≈ 0.0616 µM) | 0.125 (≈ 0.128 µM) | 0.125 (≈ 0.128 µM) | 0.06 (≈ 0.0616 µM) | 0.125 (≈ 0.128 µM) | 0.125 (≈ 0.128 µM) | 
12 | C=CCN(C)[C@H]1C[C@@H](C)O[C@@H](O[C@@H]2[C@@H](C)[C@H](OC(=O)Cc3ccccn3)[C@@H](C)C(=O)O[C@H](CC)[C@@]3(C)OC(=O)N(CCCCn4cnc(-c5cnc(N)nc5)c4)[C@@H]3[C@@H](C)C(=O)[C@H](C)C[C@@]2(C)OC)[C@@H]1O | 0.06 (≈ 0.0615 µM) | 2 (≈ 2.05 µM) |  | 0.125 (≈ 0.128 µM) | 0.03 (≈ 0.0308 µM) | 0.03 (≈ 0.0308 µM) | 0.125 (≈ 0.128 µM) | 
13 | C=CCN(C)[C@H]1C[C@@H](C)O[C@@H](O[C@@H]2[C@@H](C)[C@H](OC(=O)Cc3ccccn3)[C@@H](C)C(=O)O[C@H](CC)[C@@]3(C)OC(=O)N(CCCCn4cnc5cccnc54)[C@@H]3[C@@H](C)C(=O)[C@H](C)C[C@@]2(C)OC)[C@@H]1O | 0.5 (≈ 0.536 µM) | 0.125 (≈ 0.134 µM) | < 0.06 | 0.125 (≈ 0.134 µM) | 0.125 (≈ 0.134 µM) | 0.06 (≈ 0.0643 µM) | 0.5 (≈ 0.536 µM) | 
14 | C=CCN(C)[C@H]1C[C@@H](C)O[C@@H](O[C@@H]2[C@@H](C)[C@H](OC(=O)Cc3ccccn3)[C@@H](C)C(=O)O[C@H](CC)[C@@]3(C)OC(=O)N(CCCCn4cnc5c(N)ncnc54)[C@@H]3[C@@H](C)C(=O)[C@H](C)C[C@@]2(C)OC)[C@@H]1O | 0.125 (≈ 0.132 µM) | 0.03 (≈ 0.0316 µM) | 0.125 (≈ 0.132 µM) | 0.125 (≈ 0.132 µM) | 0.125 (≈ 0.132 µM) | 0.06 (≈ 0.0632 µM) | 0.5 (≈ 0.527 µM) | 
15 | C=CCN(C)[C@H]1C[C@@H](C)O[C@@H](O[C@@H]2[C@@H](C)[C@H](OC(=O)Cc3ccccn3)[C@@H](C)C(=O)O[C@H](CC)[C@@]3(C)OC(=O)N[C@@H]3[C@@H](C)C(=O)[C@H](C)C[C@@]2(C)OC)[C@@H]1O | 0.125 (≈ 0.164 µM) | 0.015 (≈ 0.0197 µM) |  | 1 (≈ 1.32 µM) | 0.125 (≈ 0.164 µM) | 0.015 (≈ 0.0197 µM) | 8 (≈ 10.5 µM) | 
16 | CC[C@H]1OC(=O)[C@H](C)[C@@H](OC(=O)Cc2ccccc2F)[C@H](C)[C@@H](O[C@@H]2O[C@H](C)C[C@H](N(C)CC3CC3)[C@H]2O)[C@](C)(OC)C[C@@H](C)C(=O)[C@H](C)[C@@H](O)[C@]1(C)O |  |  |  |  |  |  |  | 8 (≈ 10.4 µM)
